The text below walks through data of ChEMBL document CHEMBL1155545, “Design, synthesis and evaluation of 2,4-disubstituted pyrimidines as cholinesterase inhibitors” (Bioorg Med Chem Lett, 2010).

In one assay the target is Acetylcholinesterase (Electrophorus electricus, UniProt O42275).
The target of a further assay is Cholinesterase (Equus caballus, UniProt P81908).
Cholinesterase, sequence (P81908 whole entry): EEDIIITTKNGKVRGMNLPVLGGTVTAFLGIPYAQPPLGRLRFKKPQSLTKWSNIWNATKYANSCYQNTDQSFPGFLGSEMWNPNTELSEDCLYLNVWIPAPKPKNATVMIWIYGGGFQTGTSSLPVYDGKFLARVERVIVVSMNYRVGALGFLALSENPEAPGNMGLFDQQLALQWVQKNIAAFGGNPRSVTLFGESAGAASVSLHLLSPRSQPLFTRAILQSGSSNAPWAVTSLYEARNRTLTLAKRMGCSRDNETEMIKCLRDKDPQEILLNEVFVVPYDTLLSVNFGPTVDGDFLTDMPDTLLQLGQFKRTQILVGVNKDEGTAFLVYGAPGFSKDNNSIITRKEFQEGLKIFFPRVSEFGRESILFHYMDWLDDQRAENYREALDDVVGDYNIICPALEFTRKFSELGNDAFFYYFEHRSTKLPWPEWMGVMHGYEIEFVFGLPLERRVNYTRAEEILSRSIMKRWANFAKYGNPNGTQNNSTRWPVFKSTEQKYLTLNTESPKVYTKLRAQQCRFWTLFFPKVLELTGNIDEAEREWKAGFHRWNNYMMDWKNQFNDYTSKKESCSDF

Acetylcholinesterase, sequence (O42275 whole entry): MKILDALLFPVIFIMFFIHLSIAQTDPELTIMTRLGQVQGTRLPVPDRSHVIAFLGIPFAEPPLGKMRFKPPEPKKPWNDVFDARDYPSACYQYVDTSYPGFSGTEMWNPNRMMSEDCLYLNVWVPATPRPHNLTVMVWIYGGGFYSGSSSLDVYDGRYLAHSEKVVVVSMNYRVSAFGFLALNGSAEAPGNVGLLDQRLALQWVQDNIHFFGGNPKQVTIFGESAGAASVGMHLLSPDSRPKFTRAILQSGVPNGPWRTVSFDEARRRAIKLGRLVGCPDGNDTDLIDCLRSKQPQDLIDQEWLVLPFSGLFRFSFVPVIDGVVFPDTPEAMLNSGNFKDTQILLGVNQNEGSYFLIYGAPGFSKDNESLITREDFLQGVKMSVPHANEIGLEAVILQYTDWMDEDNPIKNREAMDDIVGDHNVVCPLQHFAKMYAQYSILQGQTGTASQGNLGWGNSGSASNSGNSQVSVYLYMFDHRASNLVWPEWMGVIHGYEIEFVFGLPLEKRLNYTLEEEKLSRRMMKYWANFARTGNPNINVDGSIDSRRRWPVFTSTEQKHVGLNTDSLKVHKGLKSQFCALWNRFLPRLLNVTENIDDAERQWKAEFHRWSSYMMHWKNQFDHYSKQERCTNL
Description for Acetylcholinesterase: Inhibition of electric eel AChE

For `CC1CCN(c2nccc(NCCc3ccccc3)n2)CC1`, the values for the half-maximal inhibitory concentration (IC50) at Acetylcholinesterase and against Cholinesterase were 7.9 µM and 17.7 µM, respectively. On to `c1ccc(CNc2ccnc(N3CCOCC3)n2)cc1`, for which the IC50 on Acetylcholinesterase stood at 0.5 µM. For `c1ccc(CCNc2ccnc(N3CCOCC3)n2)cc1`, the IC50 is 4.8 µM against Acetylcholinesterase and more than 100 µM against Cholinesterase. Consider `CN1CCN(c2nccc(NCCc3ccccc3)n2)CC1`, for which the IC50 is 14.4 µM against Acetylcholinesterase and more than 100 µM on Cholinesterase. As for `CN1CCN(c2nccc(NCc3ccccc3)n2)CC1`, the IC50 against Acetylcholinesterase was 0.56 µM; against Cholinesterase, more than 100 µM.

`c1ccc2c(CNc3ccnc(N4CCSCC4)n3)cccc2c1` returned an IC50 against Acetylcholinesterase of 15.5 µM. Take `c1ccc(CNc2ccnc(N3CCSCC3)n2)cc1`: the values for the IC50 at Acetylcholinesterase and on Cholinesterase were 0.33 µM and 2.3 µM, respectively.

Take `c1ccc(CNc2ccnc(N3CCCC3)n2)cc1`: the results for the half-maximal inhibitory concentration (IC50) on Acetylcholinesterase and against Cholinesterase were 9.8 µM and 26.4 µM, respectively. For the molecule `c1ccc2c(NCCCCCCCNc3c4c(nc5ccccc35)CCCC4)c3c(nc2c1)CCCC3`, the values for the IC50 against Acetylcholinesterase and against Cholinesterase were 0.0018 µM and 0.0105 µM, respectively. `CN1CCN(c2nccc(NCc3cccc4ccccc34)n2)CC1`: the IC50 at Acetylcholinesterase came to 17.6 µM; at Cholinesterase, 2.6 µM. Take `c1ccc(CCNc2ccnc(N3CCSCC3)n2)cc1`: the IC50 against Acetylcholinesterase is 25 µM; against Cholinesterase it was more than 100 µM.

Take `c1ccc2c(CNc3ccnc(N4CCOCC4)n3)cccc2c1`: the IC50 against Acetylcholinesterase is 15.7 µM; at Cholinesterase, 28 µM. `c1ccc2c(CNc3ccnc(N4CCCC4)n3)cccc2c1`: the 50% inhibitory concentration (IC50) against Acetylcholinesterase stood at 5.8 µM; on Cholinesterase, 8.9 µM. As to `CC1CCN(c2nccc(NCc3ccccc3)n2)CC1`, the IC50 against Acetylcholinesterase is 0.39 µM; at Cholinesterase, 2.9 µM.
